Assay results published in BindingDB's records for doi:10.1111/cbdd.12121 (University of California San Diego, 2013).
pIC50: −log10 of the molar value.

What follows are compounds tested against T1, Farnesyl pyrophosphate synthase (Homo sapiens, UniProt P14324) (assay: Inhibition Assay). Conditions: pH 7.4; 25 °C.
T1 sequence (P14324 whole entry): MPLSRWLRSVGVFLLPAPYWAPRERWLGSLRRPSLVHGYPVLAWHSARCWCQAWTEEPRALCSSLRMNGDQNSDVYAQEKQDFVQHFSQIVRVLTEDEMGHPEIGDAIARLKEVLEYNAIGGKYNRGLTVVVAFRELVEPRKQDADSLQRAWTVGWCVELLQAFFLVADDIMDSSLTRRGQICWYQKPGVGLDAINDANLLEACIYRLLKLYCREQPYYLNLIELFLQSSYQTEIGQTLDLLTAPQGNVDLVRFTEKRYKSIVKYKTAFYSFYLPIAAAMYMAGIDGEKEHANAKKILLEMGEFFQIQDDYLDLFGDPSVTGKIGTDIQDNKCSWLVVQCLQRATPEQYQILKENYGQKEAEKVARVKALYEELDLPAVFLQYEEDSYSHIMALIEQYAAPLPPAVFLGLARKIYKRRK
Source text: Human FPPS was expressed and purified and inhibition assays carried out as described previously.

Row | SMILES | pIC50
1 | CC1CNC(c2ccc(NC(=O)c3ccc(C(=O)Nc4ccc(C5=NC(C)CN5)cc4)c(N)c3)cc2)=N1 (stereo unspecified) [66761, 16] | 5.60
2 | O=C(Nc1cccc(C2=NCCN2)c1)c1ccc(C(=O)Nc2cccc(C3=NCCN3)c2)cc1 [35839, 19] | 4.86
3 | Nc1cc(C(=O)Nc2ccc(C3=NCCN3)cc2)ccc1C(=O)Nc1ccc(C2=NCCN2)cc1 [50469, 20] | 4.69
4 | O=C(Nc1ccccc1C1=NCCN1)c1ccc(C(=O)Nc2ccccc2C2=NCCN2)cc1 [35844, 17] | 5.15
5 | O=C(Nc1ccc(C2=NCCN2)cc1)c1ccc(C(=O)Nc2ccc(C3=NCCN3)cc2)c([NH+]([O-])O)c1 (stereo unspecified) [60340, 13] | 3.96
6 | O=C(Nc1ccc(C2=NCCN2)cc1)c1cccc(C(=O)Nc2ccc(C3=NCCN3)cc2)c1 [53212, 15] | 5.72
7 | O=C(Nc1cccc(C2=NCCN2)c1)c1ccc(-c2ccc(C(=O)Nc3cccc(C4=NCCN4)c3)cc2)cc1 [50460, 14] | 5.74
8 | Nc1cc(C(=O)Nc2cccc(C3=NCCN3)c2)ccc1C(=O)Nc1cccc(C2=NCCN2)c1 [50464, 21] | 4.68

The next lines start with the values.

Row | pIC50 | SMILES
9 | 4.97 | NC(=O)c1cc(NC(=O)c2ccc(C(=O)Nc3cc(C(N)=O)cc(C4=NCCN4)c3)cc2)cc(C2=NCCN2)c1 [100873, 18]
10 | 4.46 | O=C(Nc1ccc(C2=NCCN2)c(O)c1)c1ccc(C(=O)Nc2ccc(C3=NCCN3)c(O)c2)cc1 [76527, 23]
11 | 4.65 | Nc1c(C(=O)Nc2ccc(C3=NCCN3)cc2)cccc1C(=O)Nc1ccc(C2=NCCN2)cc1 [72564, 22]
